{
  "source": "patent US20220411478A1",
  "about": "“CD70 TARGETED CHIMERIC ANTIGEN RECEPTOR (CAR) T CELLS AND USES THEREOF” (priority 2019, published 2022)",
  "key": {"[1]": {"system": "Molm13", "assay": "CD70 and CD33 expression on AML in vivo after AZA (femur aspirates, flow cytometry)", "set-up": "species or system NSG mice", "settings": "five days of AZA IP", "text": "(§1) The following antibody clones targeting their respective antigens were used for flow cytometric analysis where indicated: CD70 (113-16, Biolegend), PeCy7 isotype (MOPC-21, Biolegend), CD69 (FN50, Biolegend), CD107a (H4A3, Biolegend), mouse TER-119 (TER-119, Biolegend), mouse NK-1.1 (PK136, Biolegend), mouse Ly-6G/Ly-6C (Gr-1, Biolegend), mouse CD11b (Biolegend). In general, cells were stained for fifteen minutes in the dark at 4 degrees Celsius and washed in PBS with 2% FBS. When used, DAPI was added to establish live versus dead separation. Trucount tubes (BD Biosciences, 340334) were used for murine blood CAR quantification according to kit instructions. Quantum Simply Cellular beads (Bangs Laboratories, 815) were used to quantify CD70 surface expression.\n4.3.1 was used for analysis.\nFemur aspirates were analyzed for tumor cells and their CD70 expression via flow cytometry (FIG. 4C). CD70 expression level was compared to isotype controls for each mouse."}, "[2]": {"system": "Molm13", "assay": "Aggressive Molm13 AML xenograft, azacitidine with CD70 CAR-T cells", "experimental": "For IHC, murine femurs were washed in PBS and then incubated overnight in 4% paraformaldehyde (PF Thermo-Fisher Scientific AAJ19943K2), followed by an overnight incubation in Cal-ex decalcifier (Fisher Scientific, CS510-1D) and then storage in 70% ethanol until staining. Antibody clones for IHC included the following: CD3 (2GV6, Roche) and CD45 (D9M81, Cell Signaling Technology).\nNOD-SCID-γ chain−/− (NSG) (Jackson Laboratories) mice were engrafted with Molm13 cell lines as described for the individual experiments. Mice were maintained at the MGH Center for Cancer Research and all care and conducted experiments were carried out using protocols approved by the Massachusetts General Hospital Institutional Animal Care and Use Committee. […] Cryopreserved CD70 CAR T cells or untransduced T cells were injected intravenously via tail vein at the indicated time points. Tumor burden was monitored via bioluminescence following intraperitoneal injection of D-luciferin substrate solution. AMI spectral imaging was used to perform the image capture and IDL software v. 4.3.1 was used for analysis. Animals were euthanized per the experimental protocol or when they met a priori defined endpoints by IACUC.\nA complementary technique was used to verify tumor burden and CAR-T cell expansion. […] To determine if these were cancer cells or infiltrating CAR-T cells, human CD3 was stained."}, "[3]": {"system": "solid tumor cell lines as well as primary AML blasts", "settings": "hypomethylation of the CD70 promoter; cited from earlier work"}, "[4]": {"system": "CD70 CAR-T cells", "assay": "AZA exposure of CD70 CAR-T cells: cell number and viability", "type": "cell-based, human", "settings": "increasing concentrations of AZA, 24 hours, IL-2"}, "[5]": {"system": "Molm13", "assay": "Real-time cytotoxicity assay (impedance) after AZA incubation of CAR-T cells", "type": "cell-based, human", "settings": "CAR-T cells treated in 1 μM AZA, after 96 hours", "method": "Cell index was recorded as a measure of impedance using the xCELLigence RTCA SP instrument (ACEA biosciences). […] 125,000 Molm13 cells per well were then plated for 28 hours followed by administration of 125,000 CAR-T cells. Cell index was tracked for 96 hours."}, "[6]": {"system": "CD70 CAR-T cells", "assay": "T-cell subset and activation/exhaustion markers under AZA, co-culture with Molm13", "settings": "highest concentrations of AZA"}, "[7]": {"system": "OCI-AML3 and Molm13 AML lines", "assay": "CD70 surface expression after incubation with AZA (flow cytometry), AML lines", "type": "cell-based, human", "text": "as §1"}, "[8]": {"system": "CD70 CAR-T cells", "assay": "Plate bound antigen activation assay after AZA incubation", "type": "cell-based, human", "settings": "100 μM AZA (supratherapeutic), 24 hours, washed, plate-bound CD70 overnight", "method": "After washing in PBS, trD27 or CAR T cells were added for 12 hours followed by flow cytometric staining for CD69."}},
  "data": [
    {"smiles": "Nc1ncn([C@@H]2O[C@H](CO)[C@@H](O)[C@H]2O)c(=O)n1", "note": "[AZA, azacitidine]", "values": [
      {"measurement": "increase in myeloid marker CD33", "setting": "[1]", "result": "not observed"},
      {"measurement": "treatment effect / tumor control (BLI)", "setting": "[2]; AZA 2.5 mg/kg/day IP day +18 for 5 days, T cells day +22", "result": "slight treatment effect"},
      {"measurement": "human CD45 staining of bones (immunohistochemistry)", "setting": "[2]; femurs at sacrifice", "result": "abundant human CD45 staining"},
      {"measurement": "CD70 surface expression", "setting": "[3]", "result": "increased CD70 surface expression"},
      {"measurement": "number of CAR-T cells surviving", "setting": "[4]", "result": "same number of CAR-T cells survived"},
      {"measurement": "viability of CAR-T cells", "setting": "[4]", "result": "preserved across all conditions"},
      {"measurement": "CAR-T cytotoxicity vs control", "setting": "[5]", "result": "no statistically significant difference from control"},
      {"measurement": "PD-1", "setting": "[6]", "result": "decreases"},
      {"measurement": "Tim 3", "setting": "[6]", "result": "decreases"},
      {"measurement": "effector memory phenotypes", "setting": "[6]", "result": "increase in effector memory phenotypes"},
      {"measurement": "CD70 expression", "setting": "[7]; 10 μM AZA, FIG. 15, cell line not named", "result": "bulk increase in CD70 expression"},
      {"measurement": "CD70 expression", "setting": "[7]; incubated with AZA for 20 and 44 hours", "result": "increase in CD70 expression at higher concentrations"},
      {"measurement": "CAR-T cell activation (CD69) compared to control", "setting": "[8]", "result": "significant reduction in activation"}
    ]}
  ]
}
